Assay results reported in patent US20030181418A1, “Pharmaceutical composition” (SANKYO COMPANY, LIMITED, priority 2002, published 2003).
Like-named read-outs stand apart in the source and are kept apart here.

Test system: Lewis rat with adjuvant (Mycobacterium butyricum) induced arthritis
Assay type: in vivo
Settings: distal end of right-and-left thighbone, 21st day after adjuvant, 14th to 20th day
[1] = Example 2, celecoxib 1 mg/kg orally every day and/or Preparation 22 3.5 mg/kg intraperitoneally

## Cc1ccc(-c2cc(C(F)(F)F)nn2-c2ccc(S(N)(=O)=O)cc2)cc1 [Celecoxib, celecoxib]
[1]
  Bone density (average ± standard deviation): 103.0 ± 1.8 mg/cm^2

## CC(C(=O)O)c1ccc(CC2CCCC2=O)cc1 (stereo not drawn) [Loxoprofen sodium, loxoprofen sodium]
Example 1, loxoprofen sodium 5 mg/kg orally and/or Preparation 4 0.1 mg/kg intraperitoneally, every day
  Bone density (average ± standard deviation): 106.5 ± 0.8 mg/cm^2

B1: Preparation 22: complex of recombinant human OCIF dimer and DS5; DS5 150 mg/ml, OCIF 5 mg/ml, 7° C., pH 10.5, 168 hours (conjugate, UniProt O00300 22-401, looked up)
Tumor necrosis factor …: ETFPPKYLHYDEETSHQLLCDKCPPGTYLKQHCTAKWKTVCAPCPDHYYTDSWHTSDECLYCSPVCKELQYVKQECNRTHNRVCECKEGRYLEIEFCLKHRSCPPGFGVVQAGTPERNTVCKRCPDGFFSNETSSKAPCRKHTNCSVFGLLLTQKGNATHDNICSGNSESTQKCGIDVTLCEEAFFRFAVPTKFTPNWLSVLVDNLPGTKVNAESVERIKRQHSSQEQTFQLLKLWKHQNKDQDIVKKIIQDIDLCENSVQRHIGHANLTFEQLRSLMESLPGKKVGAEDIEKTIKACKPSDQILKLLSLWRIKNGDQDTLKGLMHALKHSKTYHFPKTVTQSLKKTIRFLHSFTMYKLYQKLFLEMIGNQVQSVKISCL
modifications: dimer complexed with DS5
notes: complex of recombinant human OCIF dimer and DS5; DS5 150 mg/ml, OCIF 5 mg/ml, 7° C., pH 10.5, 168 hours
[1]
  Bone density (average ± standard deviation): 104.2 ± 2.1 mg/cm^2
